pEC50: −log10 of the molar value. Like-named read-outs stand apart in the source and are kept apart here.
Tests used:
HBV = experiment: HepAD38 antiviral assay: reduction of viral product accumulation (virion DNA by qPCR, HBsAg or HBeAg by ELISA); type: cell-based, hepatitis B virus; conditions: read-out: HepAD38 EC50
Method in brief: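 EC50 values represent 50% reduction of viral product accumulation in lysates or supernatants relative to untreated controls, with virion DNA read by qPCR and HBsAg/HBeAg by ELISA. Measurements followed 5 days of treatment, or 8 days with compound renewed on d2 and d5. Cells were tetracycline-depleted HepAD38 at 35,000/well, dosed with a 1:200 dilution of DMSO stocks.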

[1] = Compound toxicity, ATPLite total ATP levels; type: cell-based; conditions: human, HepAD38 cells, three days after compound addition, concentration reducing total ATP levels by 50% relative to no drug controls
Method: Methods: HepAD38 cells are maintained as previously reported (Ladner et al, Antimicrob. Agents Chemother. 1997, […], 1715). Briefly, cells are passaged upon attaining confluency in DMEM/F12 media in the presence of 10% FBS, Penn/Strep, 250 μg/mL G418, and 1 ug/ml tetracycline. Novel compounds are screened by first washing cells three times with PBS to remove tetracycline, and plating in 96 well plates at 35,000 cells/well. Compounds dissolved in DMSO are then diluted 1:200 into wells containing cells. Five days after compound addition, material is harvested for analysis. For an extended 8 day analysis, cells are plated and treated as described above, but media and compound are refreshed on d2 and d5 post initial treatment.
Compound toxicity is evaluated by seeding cells at 15,000 cells/well and treating with compound as described above.

[2] = Hepatitis B virus, HePAD38, 120 h, HepAD38 cells, five days after compound addition, concentration reducing viral product accumulation by 50% relative to no drug controls
[3] = Hepatitis B virus, HePAD38, 120 h

| Structure (SMILES) | pEC50 (HBV; [2]) | other results |
| --- | --- | --- |
| CCS(=O)(=O)NC[C@@]1(O)CC2CC[C@@H](C1)[C@H]2S(=O)(=O)c1cc(C(=O)Nc2cc(F)c(F)c(F)c2)ccc1Cl [Example 278] | 6.40 to 7.00 | CC50 at 3 days ([1]; class symbols): > 25000 nM |
| O=C(Nc1cc(F)c(F)c(F)c1)c1ccc(Cl)c(S(=O)(=O)[C@H]2C3CC[C@H]2C[C@](O)(c2cc(-c4ccccc4)on2)C3)c1 [Example 220] | > 7.00 | CC50 at 3 days ([1]; class symbols): < 10000 nM |
| COC(=O)N[C@H]1C2CCC1C[C@@H](S(=O)(=O)c1cc(C(=O)Nc3cc(F)c(F)c(F)c3)ccc1Cl)C2 [Example 309] | > 7.00 | CC50 at 3 days ([1]; class symbols): > 25000 nM |
| C=C[C@]1(O)CC2CC[C@@H](C1)[C@H]2S(=O)(=O)c1cc(C(=O)Nc2cc(F)c(F)c(F)c2)ccc1Cl [Example 267] | > 7.00 | CC50 at 3 days ([1]; class symbols): > 25000 nM |
| N#CC[C@]1(O)CC2CC[C@@H](C1)[C@H]2S(=O)(=O)c1cc(C(=O)Nc2cc(F)c(F)c(F)c2)ccc1Cl [Example 291] | > 7.00 | CC50 at 3 days ([1]; class symbols): 10000 to 25000 nM |
| NC(=O)OC[C@@H]1CC2CC[C@@H](C1)[C@H]2S(=O)(=O)c1cc(C(=O)Nc2cc(F)c(F)c(F)c2)ccc1Cl [Example 272] | > 7.00 | CC50 at 3 days ([1]; numeric bounds): > 12500 nM |
| C[C@]1(O)C2CCC1C[C@@H](S(=O)(=O)c1cc(C(=O)Nc3cc(F)c(F)c(F)c3)ccc1Cl)C2 [Example 246] | 6.40 to 7.00 | CC50 at 3 days ([1]; class symbols): 10000 to 25000 nM |
| CC(=O)[C@]1(O)CC2CC[C@@H](C1)[C@H]2S(=O)(=O)c1cc(C(=O)Nc2cc(F)c(F)c(F)c2)ccc1Cl [Example 150] | > 7.00 | CC50 at 3 days ([1]; class symbols): 10000 to 25000 nM |
| O=C(Nc1cc(F)c(F)c(F)c1)c1ccc(Cl)c(S(=O)(=O)[C@H]2CC3CCC(C2)[C@]3(O)CNS(=O)(=O)C2CC2)c1 [Example 294] | > 7.00 | CC50 at 3 days ([1]; numeric bounds): > 6250 nM |
| C[C@]1(S(=O)(=O)c2cc(C(=O)Nc3cc(F)c(F)c(F)c3)ccc2Cl)CC[C@H](O)CC1 [Example 17] | 6.40 to 7.00 | CC50 at 3 days ([1]; class symbols): > 25000 nM |
| O=C(Nc1cc(F)c(F)c(F)c1)c1ccc(Cl)c(S(=O)(=O)[C@H]2C[C@@H](O)C2)c1 [Example 34] | < 6.40 | – |
| O=C(Nc1cc(F)c(F)c(F)c1)c1ccc(Cl)c(S(=O)(=O)[C@H]2C3CC[C@H]2C(O)[C@](O)(CO)C3)c1 (some centres unmarked) [Example 156] | > 7.00 | – |
| COc1ccc(COC[C@]2(O)CC3CC[C@@H](C2)[C@H]3S(=O)(=O)c2cc(C(=O)Nc3cc(F)c(F)c(F)c3)ccc2Cl)cc1 [Example 315] | > 7.00 | – |
| CC1(C)O[C@@H]2[C@@H](CS(=O)(=O)c3cc(C(=O)Nc4cc(F)c(F)c(F)c4)ccc3Cl)OC(=O)[C@@H]2O1 [Example 100] | < 6.40 | – |
| CC1(C)O[C@@H]2[C@@H](CS(=O)(=O)c3cc(C(=O)Nc4cc(F)c(F)c(F)c4)ccc3Cl)OC(=O)[C@]2(C)O1 [Example 98] | < 6.40 | – |
| N[C@H]1CC[C@H](S(=O)(=O)c2cc(C(=O)Nc3cc(F)c(F)c(F)c3)ccc2Cl)CC1 [Example 72] | < 6.40 | – |
| O=C(Nc1cc(F)c(F)c(F)c1)c1ccc(Cl)c(S(=O)(=O)[C@@H]2C[C@H](O)C[C@H](O)C2)c1 [Example 79] | < 6.40 | – |
| CN(C)c1ccc(C(=O)Nc2cc(F)c(F)c(F)c2)cc1S(=O)(=O)[C@H]1C2CC[C@H]1C[C@]1(CO1)C2 [Example 143] | < 6.40 | – |
| O=C(Nc1cc(F)c(F)c(F)c1)c1ccc(Cl)c(S(=O)(=O)[C@H]2CC3CCC(C2)[C@]3(O)C[N+]2([O-])C[C@@H](O)[C@H](O)C2)c1 [Example 343] | 6.40 to 7.00 | – |
| O=C1CC2CC[C@@H](C1)[C@H]2S(=O)(=O)c1cc(C(=O)Nc2cc(F)c(F)c(F)c2)ccc1Cl [Example 130] | > 7.00 | – |
| [2H]C1([2H])C2C[C@@](O)(CO)C[C@H](C1([2H])[2H])[C@@]2([2H])S(=O)(=O)c1cc(C(=O)Nc2cc(F)c(F)c(F)c2)ccc1Cl [Example 159] | > 7.00 | – |
| C=CCO/N=C/[C@]1(O)CC2CC[C@@H](C1)[C@H]2S(=O)(=O)c1cc(C(=O)Nc2cc(F)c(F)c(F)c2)ccc1Cl [Example 204] | > 7.00 | – |
| COc1ccccc1CO/N=C/[C@]1(O)CC2CC[C@@H](C1)[C@H]2S(=O)(=O)c1cc(C(=O)Nc2cc(F)c(F)c(F)c2)ccc1Cl [Example 238] | 6.40 to 7.00 | – |
| O=C1CCC(S(=O)(=O)c2cc(C(=O)Nc3cc(F)c(F)c(F)c3)ccc2Cl)CC1 [Example 2] | 6.40 to 7.00 | – |
| O=C(Nc1cc(F)c(F)c(F)c1)c1ccc(Cl)c(S(=O)(=O)C[C@@H]2C[C@@H](O)[C@@H](O)C2)c1 [Example 102] | 6.40 to 7.00 | – |

| Structure (SMILES) | pEC50 (HBV; [2]) | other results |
| --- | --- | --- |
| O=C(Nc1cc(F)c(F)c(F)c1)c1ccc(Cl)c(S(=O)(=O)[C@H]2CC[C@H](CO)CC2)c1 [Example 115] | 6.40 to 7.00 | – |
| O=C(Nc1cc(F)c(F)c(F)c1)c1ccc(Cl)c(S(=O)(=O)[C@H]2C3CC[C@H]2C[C@](O)(/C=N/O)C3)c1 [Example 158] | > 7.00 | – |
| O=C(Nc1cc(F)c(F)c(F)c1)c1ccc(Cl)c(S(=O)(=O)[C@H]2C3CC[C@H]2C(O)C(=O)C3)c1 (some centres unmarked) [Example 146] | > 7.00 | – |
| C=C1CCC(S(=O)(=O)c2cc(C(=O)Nc3cc(F)c(F)c(F)c3)ccc2Cl)CC1 [Example 104] | 6.40 to 7.00 | – |
| COc1cc(NC(=O)c2ccc(Cl)c(S(=O)(=O)[C@H]3CC[C@H](O)CC3)c2)ccn1 [Example 40] | < 6.40 | – |
| O=C(Nc1cc(F)c(F)c(F)c1)c1ccc(Cl)c(S(=O)(=O)[C@H]2CC3CCC(C2)[C@@]3(O)CO)c1 [Example 223] | > 7.00 | – |
| CC(C)(C)OC(=O)N[C@H]1CC[C@H]([S+]([O-])c2cc(C(=O)Nc3cc(F)c(F)c(F)c3)ccc2Cl)CC1 (some centres unmarked) [Example 55] | < 6.40 | – |
| COC(=O)[C@]1(O)CC2CC[C@@H](C1)[C@H]2S(=O)(=O)c1cc(C(=O)Nc2cc(F)c(F)c(F)c2)ccc1Cl [Example 153] | < 6.40 | – |
| O=C(Nc1cc(F)c(F)c(F)c1)c1ccc(Cl)c(S(=O)(=O)C2CC3CCC(C2)N3)c1 (centres unmarked) [Example 266] | – | pEC50 (HBV; [3]): 6.40 to 7.00 |
| C[C@H](NC(=O)OC(C)(C)C)C(=O)NC[C@]1(O)C2CCC1C[C@@H](S(=O)(=O)c1cc(C(=O)Nc3cc(F)c(F)c(F)c3)ccc1Cl)C2 [Example 349] | > 7.00 | – |
| CC(C)[C@H](N)C(=O)O[C@H]1CC[C@H](S(=O)(=O)c2cc(C(=O)Nc3cc(F)c(F)c(F)c3)ccc2Cl)CC1 [Example 75] | 6.40 to 7.00 | – |
| O=C[C@]1(O)CC2CC[C@@H](C1)[C@H]2S(=O)(=O)c1cc(C(=O)Nc2cc(F)c(F)c(F)c2)ccc1Cl [Example 129] | > 7.00 | – |
| [N-]=[N+]=Nc1ccc(C(=O)Nc2cc(F)c(F)c(F)c2)cc1S(=O)(=O)[C@H]1C2CC[C@H]1C[C@](O)(CO)C2 [Example 148] | < 6.40 | – |
| O=C(Nc1cc(F)c(F)c(F)c1)c1ccc(Cl)c(S(=O)(=O)[C@H]2CC[C@@H](CO)CC2)c1 [Example 114] | 6.40 to 7.00 | – |
| C#C[C@]1(O)CC2CC[C@@H](C1)[C@H]2S(=O)(=O)c1cc(C(=O)Nc2cc(F)c(F)c(F)c2)ccc1Cl [Example 162] | > 7.00 | – |
| O=C(Nc1cc(F)c(F)c(F)c1)c1ccc(Cl)c(S(=O)(=O)[C@@H]2C3C=C(CO)CC2CC3)c1 (some centres unmarked) [Example 141] | 6.40 to 7.00 | – |
| O=C(Nc1cc(F)c(F)c(F)c1)c1ccc(Cl)c(S(=O)(=O)[C@H]2CC3CCC(C2)[C@@H]3O)c1 [Example 360] | – | pEC50 (HBV; HepAD38 cells, five days after compound addition, concentration reducing viral product accumulation by 50% relative to no drug controls): > 7.00 |
| C=CC[C@]1(O)CC2CCC(C1)[C@@H]2S(=O)(=O)c1cc(C(=O)Nc2cc(F)c(F)c(F)c2)ccc1Cl [Example 173] | > 7.00 | – |
| O=C(Nc1cc(F)c(F)c(F)c1)c1ccc(Cl)c(S(=O)(=O)[C@H]2CC3CCC(C2)[C@H]3OC2CCCO2)c1 (some centres unmarked) [Example 184] | < 6.40 | – |
| CC(C)(C)O/N=C/[C@]1(O)CC2CC[C@@H](C1)[C@H]2S(=O)(=O)c1cc(C(=O)Nc2cc(F)c(F)c(F)c2)ccc1Cl [Example 203] | > 7.00 | – |
| NC(=O)OCC1=C[C@@H]2CCC(C1)C2S(=O)(=O)c1cc(C(=O)Nc2cc(F)c(F)c(F)c2)ccc1Cl (some centres unmarked) [Example 262] | > 7.00 | – |
| CC1(C)OC[C@@]2(CC3CC[C@@H](C2)[C@H]3S(=O)(=O)c2cc(C(=O)Nc3ccc(F)c(F)c3)ccc2Cl)O1 [Example 126] | 6.40 to 7.00 | – |
| C[Si](C)(C)C#C[C@@]1(O)CC2CC[C@@H](C1)[C@H]2S(=O)(=O)c1cc(C(=O)Nc2cc(F)c(F)c(F)c2)ccc1Cl [Example 160] | – | pEC50 (HBV; [3]): 6.40 to 7.00 |
| O=C(Nc1cc(F)c(F)c(F)c1)c1ccc(Cl)c(S(=O)(=O)[C@H]2CC[C@](O)(CO)CC2)c1 [Example 109] | 6.40 to 7.00 | – |
